Assays:
Format in all cases: cell-based, human
[1] = tested on: SW620 CC cells; assay: MultiTox-Fluor cytotoxicity assay in SW620 CC cells
Protocol: Cell lines (HCT116, ht29, Rko, Hep3B, SW48, SW620, MDA-MB-231, PANC-1, su.86.86, Hfb) were obtained from the American Type Culture Collection (ATCC). Cell type authentication was carried out by microscope and DNA profiles using short tandem repeat analysis. Cells were grown in Minimum Essential Medium (MEM) containing 10% heat-inactivated Fetal Bovine Serum (FBS) or in Dulbecco's Modified Eagle's Medium (DMEM) containing 10% FBS, where specified, at 37° C. with 5% CO2. In general, the in-vitro experiments were carried out with 2. μM 0260 added into the growth medium. Dose response experiments included increasing 0260 concentrations. Cell death levels were determined using the MultiTox-Fluor Multiplex Cytotoxicity Assay (G9201, Promega, USA). In brief, 10,000 cells were seeded in black bottom 96 wells plate and were allowed to attach to the plate bottom for 16 h before the administration of various 0260 concentration in each well. Cell death levels were determined according to the manufacturer's protocol.
Cells death level was determined using the MultiTox-Fluor Multiplex Cytotoxicity Assay (G9201, Promega, USA) according to the manufacturer's protocol.

[2] = tested on: malignant cells (CC and MDA cells); assay: Cellular ATP level (HPLC) in malignant cells; conditions: SW620, co-treatment with 0260
Protocol: Quantification of intracellular ATP was carried out using HPLC as previously described.
Cells were suspended in 400 μl cold 0.4M perchloric acid solution, incubated on ice for 15 min, centrifuged at 12,000×g, neutralized with 4M K2CO3 to pH 7.5, incubated for 15 min on ice and concentrated (10,000×g). Chromatographic analyses were performed using Hitachi Elite LaChrom system at 30° C. applying supernatants to SUPELCOSIL™ LC-18-S HPLC Column (5 μm particle size, L×I.D. 25 cm×2.1 mm), flow rate 0.2 mL/min under isocratic elution conditions (50 mM potassium phosphate, 100 mM triethylamine, pH 6.5 (adjusted with phosphoric acid)):Acetonitrile (98.5:1.5)). Each analysis cycle was set to 30 min, chromatographic flow was monitored at 260 nm and integrated using EZChrom Elite Software.

[3] = tested on: CC cells; assay: Autophagy in CC cells (TEM, LC3 immuno-staining, WB); conditions: co-treatment with 0260
Protocol: (§1) WB analyses were carried out as previously described before. In brief, cells were lysed in RIPA buffer mixed with protease inhibitors and separated on SDS-PAGE gel, transferred to PVDF membrane treated with 5% skim milk to exclude non-specific background and incubated with a primary antibody over-night. The membrane was incubated for 1 h with a secondary antibody conjugated to Horseradish Peroxidase (HRP). The protein-antibody complex was visualized using the SuperSignal West Pico Chemiluminescent Substrate (Thermo scientific, USA).
Cells were fixed with 4% paraformaldehyde (30 min) and incubated with Permeabilization Solution containing 0.1% Triton X-100 (Sigma-Aldrich, Israel) in PBS at room temperature for 1 h. Nonspecific binding was blocked with PBS containing 10% fetal bovine serum for 1 h at room temperature. Cells were incubated with specific antibodies diluted 1:100 overnight at 4° C. Cells were washed (5 min) in PBS containing 0.2% Tween-20 (Sigma-Aldrich, Israel) to remove non-specific binding. Bound primary antibodies were detected by Alexa Fluor® 488 goat anti-mouse IgG antibody or Alexa Fluor® 594 goat anti-rabbit IgG antibody (Molecular Probes, Invitrogen, U.K.). Nuclei were visualized by incubation with Hoechst 33342 solution for 10 min (1:500). Nonspecific staining, as determined by binding to the secondary antibody only, was negligible. The immunostained slides were examined under the fluorescence microscope AxioimagerZ1 (Zeiss, Germany) or confocal fluorescence microscope (Olympus-FV1000).
Cells were grown in MEM or DMEM, washed twice with PBS and fixed for 5 minutes in Karnovsky fixative (2.5% glutaraldehyde, 2.5% paraformaldehyde in cacodylate buffer pH 7.4) on the tissue culture plate. Cells were then harvested, and transferred to 1.5 ml tube for further 1 h fixation at room temperature. The cells were then stored O.N at 4C° after which the samples were washed in 0.1 M cacodylate buffer and post-fixed with 1% OsO4 in 0.1 M sodium cacodylate buffer (Sigma-Aldrich, Israel) for 1 h. […]

[4] = tested on: PARP-1; assay: PARP-1 poly-ADP-ribosylation activity in CC cells (WB); conditions: co-treatment with 0260
Protocol: as §1

SMILES: Cn1cnc(N)c2ncnc1-2 [3-MA, 3-Methyladenine, reference compound]
- death levels of 0260 treated cells with autophagy inhibitor ([1]; SW620, co-treatment with 0260): reduced death levels
- ATP level in 0260 treated cells with autophagy inhibitor [2]: almost completely restored the ATP level

SMILES: NC(=O)c1cccc(N)c1 [3AB, 3-Aminobenzamide, reference compound]
- decrease of 0260-induced death ([1]; CC cells, co-treatment with 0260): 50%
- induced autophagy with PARP-1 inhibition (LC3II to LC3 I ratio) [3]: decreased LC3II to LC3 I ratio
- 0260-induced poly-ADP-ribosylation activity with PARP-1 inhibitor [4]: abolished

Source: patent publication US20180071280A1, “MODULATORS OF CELL DEATH PROCESSES” (URIFER LTD., priority 2015, published 2018)
